Laboratory results: PMC9082844 (Journal of Biomedical Science, 2022)
Like-named read-outs stand apart in the source and are kept apart here.

What was measured:
[1] = target: T1, KDM4A (Homo sapiens, UniProt O75164); assay: FDH-coupled demethylase assay, KDM4A; type: biochemical; conditions: pyrocatechol analogue; read-out: inhibitory effect
T1 sequence (O75164 1-1064): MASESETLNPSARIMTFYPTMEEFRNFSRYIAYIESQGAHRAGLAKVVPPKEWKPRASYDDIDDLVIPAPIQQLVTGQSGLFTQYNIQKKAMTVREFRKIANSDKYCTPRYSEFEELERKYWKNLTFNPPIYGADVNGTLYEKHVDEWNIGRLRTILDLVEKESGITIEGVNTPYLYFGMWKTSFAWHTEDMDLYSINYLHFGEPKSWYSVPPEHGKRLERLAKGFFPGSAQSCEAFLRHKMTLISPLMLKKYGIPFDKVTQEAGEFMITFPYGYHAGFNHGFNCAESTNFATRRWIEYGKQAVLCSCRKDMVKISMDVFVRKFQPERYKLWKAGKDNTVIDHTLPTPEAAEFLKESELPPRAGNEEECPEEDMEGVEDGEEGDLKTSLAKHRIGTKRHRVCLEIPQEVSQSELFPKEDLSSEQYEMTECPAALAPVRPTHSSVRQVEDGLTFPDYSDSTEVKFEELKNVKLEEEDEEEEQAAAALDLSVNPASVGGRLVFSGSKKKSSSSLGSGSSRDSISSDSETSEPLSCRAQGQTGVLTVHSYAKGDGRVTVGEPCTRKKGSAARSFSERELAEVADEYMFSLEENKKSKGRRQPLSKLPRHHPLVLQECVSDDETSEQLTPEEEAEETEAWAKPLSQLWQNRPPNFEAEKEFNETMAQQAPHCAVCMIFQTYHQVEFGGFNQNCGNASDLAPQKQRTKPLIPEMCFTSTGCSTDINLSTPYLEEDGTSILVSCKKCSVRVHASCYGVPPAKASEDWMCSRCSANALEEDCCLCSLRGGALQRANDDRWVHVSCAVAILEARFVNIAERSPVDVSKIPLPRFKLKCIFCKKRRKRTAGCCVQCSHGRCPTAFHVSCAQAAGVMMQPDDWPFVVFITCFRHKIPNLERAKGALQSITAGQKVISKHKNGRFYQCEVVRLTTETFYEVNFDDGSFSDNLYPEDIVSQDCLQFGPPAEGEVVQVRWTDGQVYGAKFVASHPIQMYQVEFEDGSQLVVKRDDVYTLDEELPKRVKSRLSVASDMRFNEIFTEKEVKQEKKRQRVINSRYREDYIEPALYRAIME

[2] = system: JMJD2E/KDM4E; design: method as in PMID 24260783, PMID 21124847; conditions: in vitro; cited from earlier work
[3] = system: C4-2B cells; assay: Histone methylation levels in treated C4-2B cells, western blot; type: cell-based; conditions: treated 2 days
Procedure: Total cell lysates were obtained by lysing the cell with buffer [50 mM Tris–HCl pH7.5 (Thermo Fisher Scientific, Waltham, MA, USA), 150 mM NaCl (Honeywell International, Inc., Charlotte, NC, USA), 0.5% Triton X-100 (Sigma-Aldrich), 10% glycerol (Honeywell International, Inc.), 1 mM EDTA (Affymetrix Inc.), and cock-tail protease inhibitors] for 15 min on ice, followed by 10 min of sonication cycle (30 s on, 30 s off) on ice. The level of total histone 3 and trimethylated histone H3K9 was analyzed by western blotting using anti-histone 3 (Cell Signaling, Danvers, MA, USA) and anti-H3K9me3 (Millipore, Burlington, MA, USA).
(§1) B H3K9me3 and H3K36me3 levels in myricetin-treated C4-2B cells for 2 days. The H3K9me3, H3K36me3, and H3 signals were detected in cell lysates by western blot analysis. M myricetin

[4] = system: C4-2B; assay: MTT assay, C4-2B; type: cell-based; conditions: 72 h, 3 days, read-out: IC50, proliferation
[5] = target: T2, KDM4B (Homo sapiens, UniProt O94953); assay: FDH-coupled demethylase assay, KDM4B; type: biochemical
T2 sequence (O94953 1-1096): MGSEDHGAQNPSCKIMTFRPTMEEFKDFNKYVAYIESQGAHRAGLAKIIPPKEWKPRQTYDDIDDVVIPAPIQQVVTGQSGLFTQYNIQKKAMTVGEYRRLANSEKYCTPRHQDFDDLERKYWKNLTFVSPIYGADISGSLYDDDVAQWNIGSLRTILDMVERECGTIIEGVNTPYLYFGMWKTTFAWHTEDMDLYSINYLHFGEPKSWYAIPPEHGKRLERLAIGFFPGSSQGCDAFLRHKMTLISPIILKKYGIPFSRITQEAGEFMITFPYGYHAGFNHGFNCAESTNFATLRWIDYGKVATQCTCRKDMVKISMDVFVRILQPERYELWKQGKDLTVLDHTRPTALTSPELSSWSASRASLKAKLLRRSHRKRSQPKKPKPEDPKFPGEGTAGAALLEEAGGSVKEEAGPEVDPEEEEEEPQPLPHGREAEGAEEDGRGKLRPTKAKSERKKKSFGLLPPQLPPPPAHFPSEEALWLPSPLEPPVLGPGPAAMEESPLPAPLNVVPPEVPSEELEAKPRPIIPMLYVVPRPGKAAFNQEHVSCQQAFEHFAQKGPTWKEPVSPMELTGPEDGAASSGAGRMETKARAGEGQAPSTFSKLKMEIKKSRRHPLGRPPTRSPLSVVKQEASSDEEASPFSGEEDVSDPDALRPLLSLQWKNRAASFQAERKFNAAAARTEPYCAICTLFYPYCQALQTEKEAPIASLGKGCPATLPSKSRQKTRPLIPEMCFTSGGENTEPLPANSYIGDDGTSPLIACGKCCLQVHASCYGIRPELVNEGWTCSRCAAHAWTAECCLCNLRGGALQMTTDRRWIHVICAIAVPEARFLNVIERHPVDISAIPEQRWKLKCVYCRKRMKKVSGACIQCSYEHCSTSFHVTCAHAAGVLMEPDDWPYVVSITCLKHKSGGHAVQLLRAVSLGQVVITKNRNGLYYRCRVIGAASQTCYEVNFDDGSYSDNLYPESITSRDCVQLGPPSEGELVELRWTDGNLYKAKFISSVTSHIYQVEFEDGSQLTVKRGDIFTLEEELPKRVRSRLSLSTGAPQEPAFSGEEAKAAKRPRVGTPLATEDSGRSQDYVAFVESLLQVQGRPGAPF
Procedure: All the reagents were stored at -30 °C.

[6] = target: T2, KDM4B; assay: H3 demethylation with histones as substrate, Western blot, KDM4B; type: biochemical; conditions: 50 μM myricetin (legend also 100 μM inhibitor), 37 °C 30 min
[7] = system: RWPE-1; assay: MTT assay, RWPE-1; type: cell-based; conditions: immortalized normal RWPE-1, 3 days
Procedure: (§2) Cells (3 × 10^3) were seeded in a 96-well plate 1 day before the treatment. Cell proliferation was measured by MTT colorimetric assay according to the manufacturer’s instruction (Roche, Indianapolis, IN, USA).
as §1

[8] = system: LNCaP cells; assay: MTT assay, LNCaP; type: cell-based; conditions: Homo sapiens, 72 h, 3 days, read-out: IC50, cell viability
Procedure: as §2
The IC50 value of each drug was determined by treating cells with the drug (0‒160 μM) for three days. For combination evaluation, a twofold serial dilution of each drug and its combination points above and below its IC50 value was used in an array format. Combination index (CI) values were calculated by CompuSyn software. The values of the combination dose–response curve, which represents drug-effect-shift analysis, were normalized to IC50 values of each single molar concentration of drugs (IC50 eq), and the plots were generated by Graphpad Prism 7.
as §1

[9] = system: CWR22Rv1; assay: MTT assay, CWR22Rv1; type: cell-based; conditions: 3 days
Procedure: as §2, §1

[10] = cited from earlier work
[11] = system: LNCaP cell; design: method as in PMID 24971742; conditions: cited from earlier work
[12] = system: C4-2B xenografts; assay: C4-2B xenograft; type: in vivo, Balb/c nu/nu mice
Procedure: C4-2B cells (1 × 10^6 cells) were suspended in a culture medium and mixed with Matrigel Matrix (BD, Franklin Lakes, NJ, USA). The mixtures were implanted subcutaneously into six- to eight-week-old male Balb/c nu/nu mice. […] Tumor volumes were measured for up to 3 weeks. The tumor volume was calculated using the formula: length × width × height × 0.52. Statistical analysis was conducted as described below. The animal protocols for mice experiments were approved by National Tsing Hua University Institutional Animal Care and Use Committee (approval number: NTHU-IACUC-10478) and carried out under the institutional guidelines with animal welfare standards.
Cells were treated with different concentrations of M or PLGA-M for 24 h, followed by MTT assay. B C4-2B cells (1 × 10^6) were implanted subcutaneously in the hindlimb of nude mice. […] Tumor volumes were measured for up to 3 weeks. Tumor volume was calculated using the formula (length × width × height × 0.52). Statistical significance was evaluated using Student’s t-test. C Representative IHC images of Ki67 and CD31 analysis of xenograft tumor sections from mice treated with vehicle, PLGA-M, Enza, or Enza + PLGA-M. D The proportion of Ki67 + cell was rescored in each field (400 ×) for six random fields in each group of IHC images. CD31 positive vessels in each field (100 ×) were scored for six random fields in each group. Significance was calculated using Student’s t-test. *P < 0.05; **P < 0.01; ***P < 0.001

SMILES: O=C(O)c1ccc(O)c(O)c1 [BPRKD063S0, 3,4-dihydroxybenzoic acid]
- IC50 [1]: 560 nM

SMILES: CN(C)CCCNC(=O)c1ccc(-c2cc(O)c3ncccc3c2)cc1 [ML324]
- inhibitory activity toward JMJD2E/KDM4E [2]: submicromolar

SMILES: O=c1c(O)c(-c2cc(O)c(O)c(O)c2)oc2cc(O)cc(O)c12 [Myricetin, 3,5,7-trihydroxy-2-(3,4,5-trihydroxyphenyl)-4H-chromen-4-one]
- H3K9me3 level vs untreated cells [3]: higher level
- H3K36me3 signal vs untreated cells [3]: comparable
- IC50 [4]: 20600 ± 900 nM
- Ki ([5]; increasing concentrations of H3K9me3 peptide, read-out: Ki, non-competitive with H3K9me3 peptide, KDM4B): 1010 nM
- Ki ([5]; increasing concentrations of α-KG, Lineweaver–Burk, read-out: Ki, competitive with α-KG, KDM4B): 530 nM
- demethylation of H3K9me3 or H3K36me3 by KDM4B [6]: blocked
- effect on cell growth [7]: essentially no effect
- IC50 [8]: 18500 ± 800 nM
- proliferation [9]: significantly reduced
- bioavailability through the oral route [10]: poor

SMILES: O=[N+]([O-])c1cc([N+](=O)[O-])c(/C=C/c2ccc(Cl)c(Cl)c2)cc1/C=C/c1ccc(Cl)c(Cl)c1 [NSC636819]
- LNCaP cell proliferation [11]: strongly inhibits

SMILES: O=c1c(O)c(-c2ccc(O)c(O)c2)oc2cc(O)cc(O)c12 [Quercetin, 2-(3,4-dihydroxyphenyl)-3,5,7-trihydroxychromen-4-one]
- IC50 ([5]; FDH-coupled assay): 2400 nM
- KDM4B Relative Activity (%) ([5]; FDH-coupled assay, compound concentration not given): 5.3%

SMILES: CNC(=O)c1ccc(N2C(=S)N(c3ccc(C#N)c(C(F)(F)F)c3)C(=O)C2(C)C)cc1F [enzalutamide]
- tumor growth vs vehicle at day 13 ([12]; PLGA-M i.p. 20 mg/kg three times a week, Enza oral 12.5 mg/kg five times a week, p = 0.0002): significant impairment of tumor growth
- CD31 in xenografts (IHC) ([12]; vs vehicle group): significantly higher level of CD31 was detected in the vehicle group
- Ki-67 expression in xenografts (IHC) ([12]; vs vehicle group): significantly lower
